Assay results reported in PubChem BioAssay AID467 (The Scripps Research Institute Molecular Screening Center, 2006).
The source made the active and inactive calls. How the calls were made is not given here.

System: parental cell line counter screen, S1P1 agonist assay readout
Assay: signal in parental cells, counter-screen for S1P1 agonist project (AID 467);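 further: agonist potency measured against forskolin stimulation plus an EC20 level of SEW2871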

`CC(C)OCCCNc1ncnc2c1[nH]c1ccc(F)cc12` was tested, and the EC50 was 24.4 µM (inactive).

For `NC(=O)c1ccc(OCC(F)(F)C(F)(F)C(F)(F)C(F)(F)C(F)(F)C(F)F)cc1`, the EC50 was > 95.1 µM (inactive).

`CCOC(=O)c1ccc2nc(NC(=O)c3ccco3)sc2c1` was tested, and the EC50 was > 95.1 µM (inactive).

For `Cc1oc2cc(O)cc(O)c2c(=O)c1-c1ccc2c(c1)OCCCO2`, the EC50 was > 30 µM (inactive).

For `O=C(CSc1nc2ccccc2o1)Nc1ccc(N2CCOCC2)c(Cl)c1`, the EC50 was 19.6 µM (inactive).

With `Cc1ccc(-c2nnc(SCc3ccccc3F)o2)cc1` the EC50 was > 95.1 µM (inactive).

`Cn1nc(CC(=O)Nc2ccc(N3CCN(C(=O)OC(C)(C)C)CC3)cc2)c2ccccc2c1=O` was tested, and the EC50 was > 95.1 µM (inactive).

`Cc1cc(/C=N/n2cnnc2)c(C)n1-c1ccc(OCc2ccc(F)cc2)cc1` showed an EC50 of 6.71 µM.

In the case of `Cc1nn(Cc2ccc(Cl)c(Cl)c2)c(C)c1NC(=O)c1cc(C2CC2)on1`, the EC50 is reported as 41.2 µM (inactive).

`O=C(CSc1nnc(Cc2csc(Nc3cccc(Cl)c3)n2)o1)N1CCc2ccccc21` was tested, and the EC50 was > 95.1 µM (inactive).

`CCNc1nc2c(c(=O)n(C)c(=O)n2C)n1Cc1ccc(Cl)cc1` was tested, and the EC50 was > 95.1 µM (inactive).

For `Fc1ccc2[nH]c3c(N4CCSCC4)ncnc3c2c1`, the EC50 was 11 µM (inactive).

With `CCCC(=O)c1ccc(N2CCN(C(=O)c3ccccc3Br)CC2)c(F)c1` the EC50 was 28.2 µM (inactive).

`CCOc1ccc(-c2nc(-c3ccc(OC)cc3)no2)cc1OCC` was tested, and the EC50 was > 95.1 µM (inactive).

In the case of `Cc1ccc(-c2nc(CSCC(=O)N3CCN(c4ccccn4)CC3)c(C)o2)cc1`, the EC50 is reported as > 30 µM (inactive).

`Fc1ccc(COc2ccc(/C=N/n3cnnc3)cc2)cc1` was tested, and the EC50 was > 95.1 µM (inactive).

In the case of `COc1ccc(C(c2c(O)ccc3ccccc23)N2CCOCC2)c(OC)c1` (stereo not given), the EC50 is reported as 1.45 µM.

`Cn1c(-c2c(N)n(C3CCCC3)c3nc4ccccc4nc23)nc2ccccc21` gave an EC50 of 1.96 µM.

In the case of `Cc1cc(N2CCN(c3nc4ccccc4s3)CC2)n2ncnc2n1`, the EC50 is reported as > 95.1 µM (inactive).

In the case of `CCOC(=O)c1ccc2c(c1)C(=O)N(C1CCCCC1)C2=O`, the EC50 is reported as > 95.1 µM (inactive).

`CCOc1ccc(-c2nc(CSCC(=O)N3CCN(c4cccc(OC)c4)CC3)c(C)o2)cc1` was tested, and the EC50 was 19.4 µM (inactive).

In the case of `CCCOC(=O)c1ccc(OCC(O)Cn2c(C)nc3ccccc32)cc1` (stereo not given), the EC50 is reported as > 95.1 µM (inactive).

`CCOc1ccc(C(=O)Nc2c(C(N)=O)oc3ccccc23)cc1` was tested, and the EC50 was > 95.1 µM (inactive).

In the case of `Clc1ccc(CSc2nnc(-c3ccncc3)o2)cc1`, the EC50 is reported as 86.9 µM (inactive).

With `Nc1nonc1C(=O)NCCNCc1cc(Br)ccc1OCc1ccc(F)cc1` the EC50 was 30.5 µM (inactive).

For `O=C(Nc1nc(-c2ccc3c(c2)OCO3)cs1)c1ccncc1`, the EC50 was 28.9 µM (inactive).

With `COc1ccc(NC(=O)c2cnn3c(C(F)(F)F)cc(-c4ccco4)nc23)cc1OC` the EC50 was > 95.1 µM (inactive).

With `FC(F)(F)c1ccc(N2CCN(c3cc(-c4ccccc4)nc4ncnn34)CC2)nc1` the EC50 was > 95.1 µM (inactive).

`COC(=O)c1c(C)n(-c2ccc(OC)cc2)c2ccc(O)cc12` was tested, and the EC50 was 20.1 µM (inactive).

With `CC(C)Cc1cc(C(=O)Nc2cc(Br)ccc2O)no1` the EC50 was > 10 µM (inactive).

With `CCOc1ccc(-c2nnc(-c3cccs3)o2)cc1OCC` the EC50 was > 95.1 µM (inactive).

In the case of `Cc1ccc2c(c1)[nH]c1c(N3CCN(Cc4ccccc4)CC3)ncnc12`, the EC50 is reported as 7.72 µM.

`O=C(Nc1ccc(S(=O)(=O)NCc2ccco2)cc1)c1ccc2ccccc2n1` was tested, and the EC50 was > 95.1 µM (inactive).

For `COc1ccc(-c2cc(C(=O)NC3CCCC3)no2)cc1OC`, the EC50 was > 95.1 µM (inactive).

With `O=C(c1ccc(Cl)s1)N1CCN(c2nc3ccccc3s2)CC1` the EC50 was > 95.1 µM (inactive).

In the case of `C=CCOC(=O)c1[nH]c2c(c1C)C(=O)CC(c1cc(OC)c(OC)c(OC)c1)C2` (stereo not given), the EC50 is reported as > 95.1 µM (inactive).

With `CCCOc1ccc(S(=O)(=O)NCc2ccc(OC)cc2)cc1` the EC50 was > 30 µM (inactive).

For `Cc1cc(C)cc(-c2nc(-c3ccncc3)no2)c1`, the EC50 was > 95.1 µM (inactive).

In the case of `COc1ccc(-c2cn3c(C)c(C(=O)N4CCCc5ccccc54)sc3n2)cc1`, the EC50 is reported as > 95.1 µM (inactive).

`COC(=O)c1ccc2c(=O)n(C3CCCCC3)c(SCC#N)nc2c1` was tested, and the EC50 was > 95.1 µM (inactive).

`COc1cc(C(=O)N2CCN(S(=O)(=O)c3ccc(C)cc3)CC2)ccc1OCc1c(C)noc1C` was tested, and the EC50 was > 95.1 µM (inactive).

`CCCc1ccc(Oc2cn[nH]c2-c2ccc(O)c(C)c2O)cc1` was tested, and the EC50 was > 10 µM (inactive).

For `CC(C)c1ccc2oc(-c3cc(N)ccc3O)nc2c1`, the EC50 was > 30 µM (inactive).

Compound `CC(C)(C)NC(=O)CSc1ncnc2c1nnn2Cc1ccccc1Cl` has an EC50 of 7.01 µM.

`CC(=O)Nc1ccc(S(=O)(=O)N2CCN(CCCOc3cc(C)ccc3C)CC2)cc1` was tested, and the EC50 was > 30 µM (inactive).

`Oc1ccc(-c2nnc(SCC3CCCCC3)o2)cc1` was tested, and the EC50 was > 10 µM (inactive).

For `O=C(c1ccc(F)cc1)C(CN1CCOCC1)c1ccccc1` (stereo not given), the EC50 was 11.4 µM (inactive).

`O=C(NCc1ccco1)C1CCN(C(=O)c2cc3sccc3n2Cc2ccc(Cl)cc2)CC1` was tested, and the EC50 was 22.4 µM (inactive).

`CCOC(=O)c1cnc(-n2nc(C)cc2C)nc1NC1CCCCC1` was tested, and the EC50 was 5.93 µM.

`CCCc1cc(C(=O)N2CCN(C(c3ccccc3)c3ccccc3)CC2)no1` was tested, and the EC50 was > 95.1 µM (inactive).

In the case of `COc1ccccc1-n1nnnc1SCc1cc2c(cc1Br)OCO2`, the EC50 is reported as > 95.1 µM (inactive).

With `Clc1ccc(CSc2nnc(-c3ccncc3)o2)c(Cl)c1` the EC50 was > 95.1 µM (inactive).

In the case of `Cc1nc2sccn2c1-c1csc(NCc2ccccc2)n1`, the EC50 is reported as 20 µM (inactive).

For `CCc1ccc(NC(=O)c2cc(-c3ccco3)on2)cc1`, the EC50 was > 95.1 µM (inactive).

With `COCC(=O)Nc1cccc(C(F)(F)F)c1` the EC50 was > 95.1 µM (inactive).

With `COc1ccc(-n2nc3ccc(NS(C)(=O)=O)cc3n2)cc1Cl` the EC50 was > 95.1 µM (inactive).

`Nc1nnnn1/N=C/C(Br)=C/c1ccccc1` was tested, and the EC50 was 4.08 µM.

`Cc1cccc(-c2nc(CSCC(=O)N3CCN(Cc4ccc5c(c4)OCO5)CC3)c(C)o2)c1` was tested, and the EC50 was 30.5 µM (inactive).

`Cn1cccc1C(=O)OCc1cc(Cl)cc2c1OCOC2` was tested, and the EC50 was > 30 µM (inactive).

In the case of `CCC(C)c1ccc2oc(-c3ccc(NC(=O)Cn4cnc5c(=O)n(C)c(=O)n(C)c54)cc3)nc2c1` (stereo not given), the EC50 is reported as > 95.1 µM (inactive).

`O=C(Nc1ccc(-c2noc(CCc3ccccc3)n2)cc1)c1cccnc1` was tested, and the EC50 was > 30 µM (inactive).

With `Cc1cc(/C=c2/sc3nc4ccccc4n3c2=O)c(C)n1-c1ccccn1` the EC50 was > 95.1 µM (inactive).

For `COc1ccc2ncn(-c3ccccc3)c2c1`, the EC50 was > 95.1 µM (inactive).

With `Cc1nn(Cc2ccccc2)c(C)c1C(=O)OCC(=O)c1cc(C)n(C2CC2)c1C` the EC50 was > 30 µM (inactive).

In the case of `COc1ccc(OC)c(-c2cc(C(=O)Nc3c(C)nn(Cc4ccc(Cl)cc4)c3C)no2)c1`, the EC50 is reported as > 95.1 µM (inactive).

`CCc1cc2c(N3CCN(c4ccccc4)CC3)ncnc2s1` was tested, and the EC50 was 16.3 µM (inactive).

In the case of `C/C(N)=C(/C#N)C(=O)CSc1nc2cc(Cl)ccc2s1`, the EC50 is reported as 49.5 µM (inactive).

In the case of `Cc1ccc2[nH]c3c(NCc4ccco4)ncnc3c2c1`, the EC50 is reported as 30.9 µM (inactive).

`Cc1cc(/C=N/n2cnnc2)c(C)n1-c1ccc(OCc2ccccc2F)cc1` gave an EC50 of 7.37 µM.

Work on `COC(=O)CS(=O)(=O)c1nnc([C@H](Cc2ccccc2)NC(=O)OC(C)(C)C)o1` yielded an EC50 of 3.68 µM.

For `CCCCOc1ccc(S(=O)(=O)Nc2cccnc2)cc1`, the EC50 was > 95.1 µM (inactive).

`CCCc1ccc(OCc2nc(-c3ccc(NC(=O)c4ccco4)cc3)no2)cc1` was tested, and the EC50 was > 95.1 µM (inactive).

`CC(=O)c1c(C)[nH]c(C(=O)OCCCCN2C(=O)c3ccccc3C2=O)c1C` was tested, and the EC50 was > 10 µM (inactive).

With `CCCc1ccc(Oc2cn[nH]c2-c2ccc(O)cc2O)cc1` the EC50 was > 10 µM (inactive).

`c1ccc(N2CCN(Cc3ccnc4ccccc34)CC2)cc1` was tested, and the EC50 was 47.9 µM (inactive).

`Cc1ccccc1OCCCCc1c(C)n[nH]c1C` was tested, and the EC50 was > 30 µM (inactive).

In the case of `CC1Cc2cc(-c3csc(NC(=O)Cc4cccs4)n3)ccc2N1S(C)(=O)=O` (stereo not given), the EC50 is reported as 23.8 µM (inactive).

With `COCCn1c(C)cc(C(=O)CSc2nc3ccccc3c(=O)[nH]2)c1C` the EC50 was > 95.1 µM (inactive).

With `CCc1ccc(-c2nc(-c3ccncc3)no2)cc1` the EC50 was > 95.1 µM (inactive).

`Cc1csc(NC(=O)C(Cc2ccccc2)n2cccc2)n1` (stereo not given) was tested, and the EC50 was > 30 µM (inactive).

`O=C(Oc1cccc(C(=O)N2CCOCC2)c1)c1ccc(Br)cc1` was tested, and the EC50 was > 95.1 µM (inactive).

In the case of `CN1/C(=C/C(=O)c2nc(S(C)(=O)=O)ncc2Cl)C(C)(C)c2ccccc21`, the EC50 is reported as 2.22 µM.

For `COc1ccc(C(=O)C(CN2CCOCC2)c2ccccc2)cc1F` (stereo not given), the EC50 was 8.06 µM.

In the case of `CCOc1ccc(C2CC(c3cccc(OC)c3OC)n3nnnc3N2)cc1Cl` (stereo not given), the EC50 is reported as > 95.1 µM (inactive).

For `O=C(Nc1ccccc1C(F)(F)F)c1cc(-c2ccc(O)cc2)on1`, the EC50 was > 95.1 µM (inactive).

Work on `CC1CC(C)(C)Nc2ccc(OC(=O)c3ccco3)cc21` (stereo not given) yielded an EC50 of 7.66 µM.

For `CCC(C)c1ccc2oc(-c3ccc(NC(=O)c4ncn[nH]4)cc3)nc2c1` (stereo not given), the EC50 was > 95.1 µM (inactive).

In the case of `Cc1ccccc1OCC(=O)Nc1ccc(N2CCN(C(=O)C(C)C)CC2)c(Cl)c1`, the EC50 is reported as 26 µM (inactive).

`CC1CCc2nc(NC(=O)CSc3nc4ccccc4o3)sc2C1` (stereo not given) was tested, and the EC50 was > 95.1 µM (inactive).

With `CCCCn1ccnc1C(=O)c1cccc(S(=O)(=O)N2c3ccccc3CC2C)c1` (stereo not given) the EC50 was > 95.1 µM (inactive).

With `O=C(CSc1nnc(-c2ccc(Cl)cc2)n1Cc1ccco1)c1cccs1` the EC50 was > 30 µM (inactive).

`CCOc1ccc(Cc2nc(-c3nonc3N)no2)cc1OCC` was tested, and the EC50 was > 95.1 µM (inactive).

`CCN(C1CCCCC1)S(=O)(=O)c1ccc(S(=O)(=O)NCc2ccncc2)cc1` was tested, and the EC50 was 76.5 µM (inactive).

With `Cc1cc(C(=O)CC#N)c(C)n1-c1ccc(OC(F)F)cc1` the EC50 was > 95.1 µM (inactive).

`CC(C)[C@H](NC(=O)OC(C)(C)C)c1nnc(SCC(=O)Nc2ccc(Br)cc2)o1` was tested, and the EC50 was > 30 µM (inactive).

With `CC(=O)N1CCCc2cc(S(=O)(=O)NCCC3=CCCCC3)ccc21` the EC50 was > 95.1 µM (inactive).

In the case of `O=C(c1ccco1)N1CCN(c2ncnc3c2[nH]c2ccc(Br)cc23)CC1`, the EC50 is reported as > 10 µM (inactive).

In the case of `CCOC(=O)c1sc2nc(NC(=O)C3CCCCC3)sc2c1C`, the EC50 is reported as > 95.1 µM (inactive).

Work on `CC1=C(C(=O)OCc2ccc3c(c2)OCO3)C(c2ccc(F)cc2)NC(=O)N1` (stereo not given) yielded an EC50 of 2.3 µM.

For `O=C(CSc1nnc(Cn2nnc3ccccc32)o1)N(Cc1ccc(F)cc1)c1ccccc1`, the EC50 was 30.6 µM (inactive).
